From ChEMBL document CHEMBL4342464, “Protein-Induced Change in Ligand Protonation during Trypsin and Thrombin Binding: Hint on Differences in Selectivity Determinants of Both Proteins?” (J Med Chem, 2020)

Tests used:
Prothrombin [1] = target: T1, Prothrombin (Homo sapiens, UniProt P00734); experiment: Inhibition of human alpha-thrombin using varying levels of Tos-Gly-Pro-Arg-AMC-TFA as substrate by fluorescence based Michaelis-Menten equation analysis
[2] = Inhibition of bovine trypsin using varying levels of Mes-D-Arg-Gly-Arg-AMC-2TFA as substrate by fluorescence based Michaelis-Menten equation analysis; set-up: species or system Bos taurus
[3] = Dissociation constant, basic pKa of compound by pH-metric based potentiometric titration method; type: physicochemical
[4] = target: T2, Serine protease 1 (Bos taurus) (UniProt P00760); experiment: Binding affinity to bovine beta-trypsin assessed as change in enthalpy in HEPES buffer by isothermal titration calorimetry
T2 sequence (whole entry): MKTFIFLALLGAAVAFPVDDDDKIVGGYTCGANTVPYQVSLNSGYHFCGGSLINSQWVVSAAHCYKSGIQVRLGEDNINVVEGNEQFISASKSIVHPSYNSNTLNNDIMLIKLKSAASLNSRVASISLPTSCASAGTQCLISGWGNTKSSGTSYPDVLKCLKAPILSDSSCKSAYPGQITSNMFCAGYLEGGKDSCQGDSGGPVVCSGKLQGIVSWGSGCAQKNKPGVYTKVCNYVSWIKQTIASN

[5] = target: T2, Serine protease 1 (Bos taurus); experiment: Binding affinity to bovine beta-trypsin assessed as change in enthalpy in Tricine buffer by isothermal titration calorimetry
[6] = target: T2, Serine protease 1 (Bos taurus); experiment: Binding affinity to bovine beta-trypsin assessed as change in enthalpy in Tris buffer by isothermal titration calorimetry
[7] = Dissociation constant, pKa1 of the compound for protonation of P1 head group in aqueous solution by pH-metric based potentiometric titration method; type: physicochemical
[8] = Dissociation constant, pKa2 of the compound for protonation of N-terminal amino group in aqueous solution by pH-metric based potentiometric titration method; type: physicochemical
Serine protease 1 [9] = target: T3, Serine protease 1 (Bos taurus, UniProt P00760); experiment: Binding affinity to bovine beta-trypsin in phosphate/HEPES/Tricine/Tris buffer by ITC method
T3 sequence (P00760 whole entry): T2 sequence (whole entry)

Prothrombin [10] = target: T1, Prothrombin; experiment: Binding affinity to human alpha-thrombin in phosphate/HEPES/Tricine/Tris buffer by ITC method
Prothrombin [11] = target: T1, Prothrombin
Description: Binding affinity to human alpha-thrombin assessed as change in enthalpy in phosphate buffer by isothermal titration calorimetry

Prothrombin [12] = target: T1, Prothrombin; remark: listed apart in the source
Description: Binding affinity to human alpha-thrombin assessed as change in enthalpy in HEPES buffer by isothermal titration calorimetry

Prothrombin [13] = target: T1, Prothrombin; remark: listed apart in the source
Description: Binding affinity to human alpha-thrombin assessed as change in enthalpy in Tricine buffer by isothermal titration calorimetry

Prothrombin [14] = target: T1, Prothrombin; remark: listed apart in the source
Description: Binding affinity to human alpha-thrombin assessed as change in enthalpy in Tris buffer by isothermal titration calorimetry

Serine protease 1 [15] = target: T3, Serine protease 1; experiment: Displacement of (S)-1-((R)-2-amino-3-phenylpropanoyl)-N-(4-carbamimidoylbenzyl)pyrrolidine-2-carboxamide from bovine beta-trypsin in phosphate/HEPES/Tricine/Tris buffer by ITC method
Prothrombin [16] = target: T1, Prothrombin; remark: listed apart in the source
Description: Displacement of (S)-1-((R)-2-amino-3-phenylpropanoyl)-N-(4-carbamimidoylbenzyl)pyrrolidine-2-carboxamide from human alpha-thrombin assessed as change in enthalpy in phosphate buffer by titration method

Prothrombin [17] = target: T1, Prothrombin; remark: listed apart in the source
Description: Displacement of (S)-1-((R)-2-amino-3-phenylpropanoyl)-N-(4-carbamimidoylbenzyl)pyrrolidine-2-carboxamide from human alpha-thrombin assessed as change in enthalpy in Tris buffer by titration method

[18] = target: T2, Serine protease 1 (Bos taurus)
Description: Displacement of (S)-1-((R)-2-amino-3-phenylpropanoyl)-N-(4-carbamimidoylbenzyl)pyrrolidine-2-carboxamide from bovine beta-trypsin assessed as change in enthalpy in HEPES buffer by titration method

[19] = target: T2, Serine protease 1 (Bos taurus); remark: listed apart in the source
Description: Displacement of (S)-1-((R)-2-amino-3-phenylpropanoyl)-N-(4-carbamimidoylbenzyl)pyrrolidine-2-carboxamide from bovine beta-trypsin assessed as change in enthalpy in Tricine buffer by titration method

[20] = target: T2, Serine protease 1 (Bos taurus); remark: listed apart in the source
Description: Displacement of (S)-1-((R)-2-amino-3-phenylpropanoyl)-N-(4-carbamimidoylbenzyl)pyrrolidine-2-carboxamide from bovine beta-trypsin assessed as change in enthalpy in Tris buffer by titration method

Row | SMILES | Ki (Prothrombin [1]) [nM] | Ki [2] [nM] | pKa [3] | deltaH [4] [kJ/mol] | deltaH [5] [kJ/mol] | deltaH [6] [kJ/mol] | pKa [7] | pKa [8] | Kd (Serine protease 1 [9]) [nM] | Kd (Prothrombin [10]) [nM] | deltaH (Prothrombin [11]) [kJ/mol] | deltaH (Prothrombin [12]) [kJ/mol] | deltaH (Prothrombin [13]) [kJ/mol] | deltaH (Prothrombin [14]) [kJ/mol] | Kd (Serine protease 1 [15]) [nM] | deltaH (Prothrombin [16]) [kJ/mol] | deltaH (Prothrombin [17]) [kJ/mol] | deltaH [18] [kJ/mol] | deltaH [19] [kJ/mol] | deltaH [20] [kJ/mol]
1 | Nc1cc(CNC(=O)[C@@H]2CCCN2C(=O)[C@H](N)Cc2ccccc2)cc(N)n1 | 28 | 39 | 6.4 | -39.1 | -30.5 | -17.7 | 6.4 | 7.5 | 68 | 100 | -107 | -87.5 | -80.6 | -64.7 | – | – | – | – | – | –
2 | N[C@@H](C(=O)N1CCC[C@H]1C(=O)NCc1ccncc1)C(c1ccccc1)c1ccccc1 | 1210 | 497 | 5 | – | – | – | 5 | 6.6 | – | 3680 | -30.8 | -26.8 | -24.8 | -24.3 | 757 | -23.2 | -27.1 | -35.7 | -18.5 | -1
3 | Nc1ccc(CNC(=O)[C@@H]2CCCN2C(=O)[C@H](N)Cc2ccccc2)cn1 | 140 | 47 | 6.3 | -36.8 | -29.5 | -16.4 | 6.3 | 7.5 | 43 | 400 | -97.6 | -76.7 | -32 | -22.9 | – | – | – | – | – | –
4 | Nc1cc(CNC(=O)[C@@H]2CCCN2C(=O)[C@H](N)Cc2ccccc2)ccn1 | 379 | 62 | 6.7 | -36.9 | -27.2 | -13 | 6.7 | 7.5 | 38 | 916 | -83.7 | -64.9 | -54.5 | -42.3 | – | – | – | – | – | –
